Measurements reported in patent US20100016256A1, “Taxane Compounds for Treating Eye Disease” (priority 2008, published 2010).
Like-named read-outs stand apart in the source and are kept apart here.

Key:
[1] = system: blood vessel lesions of the eye; settings: rats
From the text: In another study, flat mount evaluation of the eyes can be carried out at the end of the study because angiography may not provide a full evaluation of the effect of the drug. At the end of the study, the eyes are removed, histologically processed and all lesions can be seen (including those that can not be detected by angiography).
Groups of 8 rats/dosage group are neovascularized by laser burns, followed by immediate treatment of the eye with a cobalamin-paclitaxel bioconjugate prepared in accordance with Example 1. Dosages used are 1.5 μg/2 μL, 5.0 μg/2 μL, and 15 μg/2 μL. The treatments also include a vehicle and Kenacort Retard® (4% triamcinolone acetonide). After 21 days, the eyes are removed, histologically processed, and the lesion size scored in μm^3.

[2] = paclitaxel conjugated to cobalt atom of cobalamin
[3] = system: viable circulating endothelial cell precursors (CEPs); settings: mice; for Viable CEPs per microliter of peripheral blood: after 28 days
Description: (§1) A group of 6 mice are administered various dosages of the cobalamin-paclitaxel bioconjugate prepared in accordance with Example 1 over a 28-day period. The effects on counts of viable circulating endothelial cell precursors and white blood cells are measured after 28 days.

white blood cells = settings: mice; for White blood cells per 10^4 peripheral blood cells: after 28 days
Description: as §1

[4] = system: choroidal neovascularization by laser burns on the eye; settings: rats
Description: Groups of 8 rats/dosage group or vehicle are neovascularized by laser burns on the eye. Afterwards, the eye is immediately treated with a cobalamin-paclitaxel bioconjugate prepared in accordance with Example 1 at a dose of 1.5 μg/2 μL, 5.0 μg/2 μL, and 15 μg/2 μL (indicated as B.C. in FIG. 1). The treatment regimen also includes a vehicle and Kenacort Retard® (4% triamcinolone acetonide), as a positive control. Each treatment is scored at 7, 14, and 21 days post-treatment by infusing the eye with fluorescein and scoring the leakage using angiography. A score of 0 indicates no leakage while a score of 3 indicates severe leakage. The results of the test are shown in FIG. 1 as the percentage of […] scoring 3.

[5] = system: bFGF-stimulated formation of new blood vessel in the Matrigel plug; assay: Matrigel plug perfusion in vivo assay; settings: mice, Matrigel and bFGF; for Matrigel Plug/Plasma Fluorescence Ratio: oral gavage
Description: A Matrigel® plug perfusion in vivo assay is performed to determine the anti-angiogenic efficiacy of the cobalamin-paclitaxel bioconjugate (Cob-Pac) of Example 1. The assay uses Matrigel®, a gelatinous protein mixture secreted by mouse tumor cells (BD Biosciences, San Jose, Calif.), to duplicate tissue environments. Matrigel® is liquid at […], but when injected into the animal, forms a solid plug. If a growth vessel stimulant such as basic fibroblast growth factor (bFGF) is mixed with the Matrigel®, the bFGF stimulates the formation of new blood vessel in the plug, which can be monitored in the animal via fluorescence techniques. In the current study, Matrigel® is injected either alone or with bFGF subcutaneously into mice.

[6] = 1.5 mg/kg paclitaxel delivered as bioconjugate
[7] = 2 mg/kg paclitaxel delivered as bioconjugate
[8] = 3 mg/kg paclitaxel delivered as bioconjugate
[9] = 6 mg/kg paclitaxel delivered as bioconjugate
[10] = 30 mg/kg paclitaxel delivered as bioconjugate

SMILES: CC(=O)O[C@H]1C(=O)[C@@]2(C)C([C@H](OC(=O)c3ccccc3)[C@]3(O)C[C@H](OC(=O)[C@H](OC(=O)C[NH+](C)CC[CH2][Co+][N]4/C5=C(/C)C6=N/C(=C\C7=NC(=C(/C)C8=NC(C(C)C4C(CC(N)=O)C5(C)CCC(=O)NCC(C)OP(=O)([O-])OC4C(CO)OC(n5cnc9cc(C)c(C)cc95)C4O)C(C)(CC(N)=O)C8CCC(N)=O)/C(C)(CC(N)=O)C7CCC(N)=O)C(C)(C)C6CCC(N)=O)[C@@H](NC(=O)c4ccccc4)c4ccccc4)C(C)=C1C3(C)C)[C@]1(OC(C)=O)COC1C[C@@H]2O.[Cl-] (stereo partly drawn) [cobalamin-paclitaxel bioconjugate, Cbl-(CH2)3N(CH3)CH2COO-2′-P7X]
- Number of blood vessel lesions (FIG. 2) ([1]; 21 days, 1.5, 5.0 and 15 μg/2 μL): decrease in a concentration dependent manner
- Inhibition of new blood vessel growth (lesion study) ([1]; 21 days, high and medium concentrations (15 and 5.0 μg/2 μL)): efficacious in inhibiting new blood vessel growth
- water solubility [2]: over 100 mg/ml
- Viable CEPs per microliter of peripheral blood [3, 6]: 0.4 per microliter of peripheral blood
- Viable CEPs per microliter of peripheral blood [3, 7]: 0.25 per microliter of peripheral blood
- Viable CEPs per microliter of peripheral blood [3, 8]: 0.4 per microliter of peripheral blood
- Viable CEPs per microliter of peripheral blood [3, 9]: 0.9 per microliter of peripheral blood
- Viable CEPs per microliter of peripheral blood [3, 10]: 1.2 per microliter of peripheral blood
- Most effective dose (decrease in viable CEPs) ([3]; 28-day dose study, dose as paclitaxel): about 2 mg/kg
- White blood cells per 10^4 peripheral blood cells (white blood cells; [6]): 6700 per 10^4 peripheral blood cells
- White blood cells per 10^4 peripheral blood cells (white blood cells; [7]): 6700 per 10^4 peripheral blood cells
- White blood cells per 10^4 peripheral blood cells (white blood cells; [8]): 7000 per 10^4 peripheral blood cells
- White blood cells per 10^4 peripheral blood cells (white blood cells; [9]): 6700 per 10^4 peripheral blood cells
- White blood cells per 10^4 peripheral blood cells (white blood cells; [10]): 8100 per 10^4 peripheral blood cells
- Toxicity by white blood cell count (neutropenia) (white blood cells; 28 days, absence of a decrease in white blood cell count): no neutropenia
- Anti-angiogenic effect by fluorescein leakage score (FIG. 1) ([4]; after 7 days, intermediate and high doses (5.0 and 15 μg/2 μL)): anti-angiogenic results
- Anti-angiogenic effect by fluorescein leakage score (FIG. 1) ([4]; after 14 days, high dose (15 μg/2 μL)): anti-angiogenic benefit
- Effect on growth of new blood vessels in Matrigel plug ([5]; each dose (2, 6, 30 mg/kg), greatest effect at 2 and 6 mg/kg): inhibits the growth of new blood vessels
- Matrigel Plug/Plasma Fluorescence Ratio ([5]; 2 mg/kg expressed in paclitaxel units): 0.0007
- Matrigel Plug/Plasma Fluorescence Ratio ([5]; 6 mg/kg expressed in paclitaxel units): 0.0005
- Matrigel Plug/Plasma Fluorescence Ratio ([5]; 30 mg/kg expressed in paclitaxel units): 0.0011
